Experimental data as given in a melting point compilation (Tetko et al.; mined from patent text by program, amines drawn as free bases though some values may be those of a salt).

SMILES	melting point [°C]
COc1ccc(C(=O)Nc2c(Cl)cncc2Cl)c2c1oc1ccc([N+](=O)[O-])cc12	315 to 317
CC(C)(C)OC(=O)Nc1ccc(-c2ccc(F)cc2F)cc1NC(=O)CC(=O)c1ccnc(C#N)c1	160 to 161
NC(=O)/C=C/C1=CC=CC(F)(C(F)(F)F)C1 (centres undefined)	121 to 122
CN1CCN(C(=O)c2cc3ccnc(Cl)c3[nH]2)CC1	230 to 232
Cn1c(COc2ccc(CC3SC(=O)NC3=O)cc2)nc2ccc(Oc3cccc(NC(=O)NCc4ccc(C(F)(F)F)cc4)c3)cc21 (centres undefined)	128 to 132
CCCCCN1C(=O)C2(COc3ccc(-c4cncnc4)cc32)c2ccccc21 (centres undefined)	115 to 117
COc1ccc(C(=O)CCCC(=O)C(F)(F)F)cc1	67.5 to 68.9
CC(C)NC(=O)c1ccc(-c2ccc3nnn(Cc4ccc5ncccc5c4)c3n2)cc1	181 to 183
CON1C=Cc2ccccc2C1	113 to 114
O=C(NC1CC1)C(Cl)Cl	130 to 132
COc1ccc(-c2sc3cc(OC)ccc3c2C(=O)c2ccc(/C=C/C(=O)O)cc2)cc1	204 to 207
Cc1ccc(C(=O)c2ccc(C)cc2F)c(F)c1	84 to 85.5
CC1(C)Nc2cc(Cl)ccc2NC1=O	166 to 170
Fc1ccc(-c2c(-c3ccccc3)oc3ncnc(Cl)c23)cc1	124 to 127
COc1cc2nc(OC)n3cnnc3c2cc1OC	245 to 250
CC(C(=O)O)c1ccc2c(c1)Sc1ncccc1CC2=O (centres undefined)	150 to 151
CC(=O)Nc1nc(OS(=O)(=O)c2ccccc2)ncc1F	142 to 143
CCOc1ccc(C(=O)NC/C=C/c2ccccc2)cc1	132

SMILES	melting point [°C]
O=C(O)c1ccccc1Oc1ccc(F)cc1	146 to 147
CSC(=NC(=O)NC(C)C)NC(=O)NC(C)C	125 to 127
CCOC(=O)c1ccc(NC(=O)C=C(c2ccccc2)c2ccccc2)cc1	166 to 169
COc1cc(C(C)(C)C)c(OC(C)=O)c(C(C)(C)C)c1	96.6
O=C1NC(=O)c2c1c(-c1ccccc1Cl)cc1c2ccn1CCCO	225 to 227
COc1cn(-c2ccc(N3CCN(C)C3=O)cc2F)nc(-c2ccnn2-c2ccccc2)c1=O	208 to 209
Cc1ccc2sc(=O)[nH]c2c1	86 to 88
O=C(O)c1cccc(N2C(=O)c3ccc(C(=O)O)cc3C2=O)c1	> 380
CC(=O)OCC1OC(OC2C(COC(C)=O)OC(OCCBr)C(OC(C)=O)C2OC(C)=O)C(OC(C)=O)C(OC(C)=O)C1OC(C)=O (centres undefined)	151 to 152
N#Cc1[nH]c(-c2ccc(Cl)cc2)c(S(=O)(=O)C(F)(F)F)c1Br	170 to 185
COc1ccc(Cn2c(=O)c(C(=O)NC3CCCCC3)c(O)c3cccnc32)cc1	149
Cn1nc(-c2cccc(F)c2)n(C)c1=S	126 to 128
CCOC1C(=O)NC(=O)N1CCCc1ccccc1 (centres undefined)	64
Cc1cc2c(c3c1sc1ccc(O)cc13)C(=O)N(CCN(C)C)C2=O	249 to 254
Cc1cccc(-c2n[nH]cc2-c2ccc(F)c(-c3ccc[nH]3)c2)n1	141 to 142
CCCCNc1c([N+](=O)[O-])cc(C)cc1[N+](=O)[O-]	52
COc1ccnc(C(C)Sc2nc3cc(OC(F)(F)C(F)F)ccc3[nH]2)c1 (centres undefined)	78 to 81

Other lines, results leading:

melting point [°C]	SMILES
98 to 99	Nc1ncc(CCC2CCCCC2)s1
162 to 164	Cc1nn(C)c(C)c1N1CCN(c2c(C)c(C)c3c(c2C)CC(C)(C)O3)CC1
65 to 67	Brc1cncc(OCc2ccccc2)c1
108	C=CCNC(=O)N1CC(OCc2cccc(C(F)(F)F)c2)C1
105	CO[C@]1(c2cc(F)cc(Sc3ccc(/C(C)=N/O)cc3)c2)CCO[C@@H](C)C1
86	CC1(C)C=C(c2ccccn2)c2cc(F)c(F)cc2OC1
136 to 139	CCc1n[nH]c(=O)n1CCOc1ccccc1
302 to 305	CN(C)C(=O)C1Cc2cc(Cl)ccc2NC1=O (centres undefined)
171 to 173	COc1ccc(-c2nnc(C(Cl)(Cl)Cl)o2)cc1OC
65 to 66	CCCCNc1ccc(CCNc2ncnc(CC)c2C(=O)OCC)cc1
83 to 85	CCNCCC1CCc2cc(OCc3ccc(-c4ccccc4)cc3)ccc2C1 (centres undefined)
128 to 130	CS(=O)(=O)Nc1cccc(NC(=O)C(=O)N2CCC(Cc3ccccc3)CC2)c1
209 to 210	COc1ccc2sc3c(c2c1)SCCNC3=O
64 to 87	CN1C(=O)CC[C@]2(C)c3ccc(-c4cccc(C(F)(F)F)c4)cc3CC[C@@H]12
52	CC(C)(C)[Si](C)(C)O[C@H]1CCC[C@@]2(C)[C@H]1CC[C@@H]2[C@]1(C)CC(=O)CO1
204	Cc1nn(C)c(NC(=O)Nc2ccccc2)c1C1=CCCC1
100 to 101	N#CCCNC(=O)c1cccc(Br)c1
145 to 147	O=C(NCC12CC3CC(CC(C3)C1)C2)c1cc(CC[C@H](O)CO)ccc1Cl
217 to 218	O=C(Cc1c(-c2ccccc2)c2cc3c(cc2oc1=O)C(O)CC3)Nc1ccc(F)cc1C(F)(F)F (centres undefined)
141 to 143	CCc1ccccc1N1CCN(C(=S)Nc2nc3ccccc3nc2OC)CC1

melting point [°C]	SMILES
247	Cn1c(=O)c(C#N)c(N2CCN(C(=O)c3cccs3)CC2)c2ccccc21
267	O=C(O)c1ccc(C(=O)Nc2nnc(-c3cc(Cl)cc(Cl)c3O)s2)nc1
260 to 262	Nc1nc2cc(-c3cccnc3)ccc2c2c1nc(CO)n2CC1CCOCC1
82 to 83	COCCOCCOc1ccc(C2=N[C@@](C)(C(=O)O)CS2)c(O)c1
195 to 199	COC(=O)c1cscc1NC(=O)NCCN1CCN(c2ccccc2OC)CC1
140 to 142	Oc1nc(-c2ccc(F)cc2)c(CCN2CCC(=Cc3cccc(F)c3)CC2)s1
249 to 250	CC1COCc2nc3cnc4cc(C=CS(C)(=O)=O)ccc4c3n21 (centres undefined)
166 to 167	Cc1nc(C(=O)NCCN2CCOCC2)cc(-c2cccc([N+](=O)[O-])c2)c1C(C)O (centres undefined)
150 to 158	CN1C(C)(C)CC(OC(=O)CCc2cc(-n3nc4ccc(Cl)cc4n3)c(O)c(C(C)(C)C)c2)CC1(C)C
130	Nc1ccc(NCCO)c(S(=O)(=O)CCO)c1
202 to 204	CCC(=O)Nc1cnn2cnc3ccccc3c12
114 to 117	COC1C(O)C(CO)OC1n1cnc(C(N)=O)c1N (centres undefined)
305 to 308	O=C1NC(=O)c2c1cc1ccc3c(c1c2C1CCCCC1)OCO3
284 to 286	Nc1c(F)c(F)c(OC(F)F)c2c1c(=O)c(C(=O)O)cn2C1CC1
175	Cc1nc(C)c(-c2ccc(OC3SCC(O)C(O)C3O)cn2)s1 (centres undefined)
160 to 162	NCCCCNc1ncc2ncnc(Nc3ccc(F)c(Cl)c3)c2n1
213 to 214	N#Cc1c(NC(=O)C2CCCCC2)sc(-c2ccccc2)c1[N+](=O)[O-]
299	O=C1NC(N2CCCCCC2)=N/C1=C\c1c[nH]c2ncc(F)cc12
146 to 147	CCOC(=O)c1csc(NC(=O)c2ccccc2)n1
